What was measured:
Assay in all cases: IA-DTB cysteine engagement
Assay type in all cases: binding
LRPPRC_C571 = target: T1, LRPPRC_C571 (Homo sapiens, UniProt P42704); conditions: 22Rv1 cells, 20 μM probe, 1 h, relative to DMSO
T1 construct: endogenous in cells; host or cells: 22Rv1
Outline: (§1)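 In-situ probe treatment of cells; lysate 2 mg/mL, IA-DTB 1 h RT; MeOH/CHCl3 precipitation, DTT/iodoacetamide, trypsin; streptavidin enrichment; TMT labeling, high-pH fractionation. Ratio = TMT reporter intensity / mean DMSO channels, median-normalized.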

NAPIL1_C132 = target: T2, NAPIL1_C132 (Homo sapiens, UniProt P55209); conditions: 22Rv1 cells, 20 μM probe, 1 h, relative to DMSO
T2 construct: endogenous in cells; host or cells: 22Rv1
T2 sequence (P55209 1-391): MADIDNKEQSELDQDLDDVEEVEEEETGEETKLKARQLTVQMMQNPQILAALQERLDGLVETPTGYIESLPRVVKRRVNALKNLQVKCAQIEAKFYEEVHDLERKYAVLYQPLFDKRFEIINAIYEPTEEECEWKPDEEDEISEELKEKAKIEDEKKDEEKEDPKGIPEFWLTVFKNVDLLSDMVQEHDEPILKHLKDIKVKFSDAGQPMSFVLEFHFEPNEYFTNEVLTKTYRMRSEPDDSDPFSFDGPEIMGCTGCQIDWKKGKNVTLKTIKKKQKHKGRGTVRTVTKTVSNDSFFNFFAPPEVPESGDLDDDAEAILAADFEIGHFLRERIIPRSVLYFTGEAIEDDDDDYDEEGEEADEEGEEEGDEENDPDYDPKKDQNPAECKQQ
Outline: as §1

NUDT16L1_C88 = target: T3, NUDT16L1_C88 (Homo sapiens, UniProt Q9BRJ7); conditions: 22Rv1 cells, relative to DMSO; for % engagement NUDT16L1_C88: 20 μM probe, 1 h; for % engagement NUDT16L1_88: 5 μM probe, 1 h (FIG. 5B)
T3 construct: endogenous in cells; host or cells: 22Rv1
Outline: as §1

TOMM70_C214 = target: T4, TOMM70_C214 (Homo sapiens, UniProt O94826); conditions: 22Rv1 cells, 20 μM probe, 1 h, relative to DMSO
T4 construct: endogenous in cells; host or cells: 22Rv1
T4 sequence (O94826 1-608): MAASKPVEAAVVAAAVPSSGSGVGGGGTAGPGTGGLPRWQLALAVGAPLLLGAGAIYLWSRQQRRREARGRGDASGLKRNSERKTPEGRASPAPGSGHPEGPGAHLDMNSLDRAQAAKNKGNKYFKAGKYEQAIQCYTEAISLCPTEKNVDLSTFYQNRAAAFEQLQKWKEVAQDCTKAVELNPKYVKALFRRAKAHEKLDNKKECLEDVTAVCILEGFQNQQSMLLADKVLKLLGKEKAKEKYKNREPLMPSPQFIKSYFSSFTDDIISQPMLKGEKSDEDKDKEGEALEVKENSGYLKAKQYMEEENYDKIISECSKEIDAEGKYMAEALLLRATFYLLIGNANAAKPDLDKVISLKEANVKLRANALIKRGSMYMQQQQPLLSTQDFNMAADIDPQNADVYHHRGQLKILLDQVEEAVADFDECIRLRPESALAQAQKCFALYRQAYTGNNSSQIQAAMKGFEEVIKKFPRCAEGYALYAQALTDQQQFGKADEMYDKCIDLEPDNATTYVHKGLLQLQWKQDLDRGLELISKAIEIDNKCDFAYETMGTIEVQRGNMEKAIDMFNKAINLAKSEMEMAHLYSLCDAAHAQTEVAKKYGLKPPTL
Outline: as §1

T3 sequence (Q9BRJ7 whole entry): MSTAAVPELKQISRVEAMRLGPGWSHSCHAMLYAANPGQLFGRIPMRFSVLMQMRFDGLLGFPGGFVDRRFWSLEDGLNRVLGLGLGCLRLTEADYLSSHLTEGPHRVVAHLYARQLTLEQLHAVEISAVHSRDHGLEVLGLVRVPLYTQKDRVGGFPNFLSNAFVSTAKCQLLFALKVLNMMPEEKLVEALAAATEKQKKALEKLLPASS

Compound | % engagement LRPPRC_C571 (LRPPRC_C571) | % engagement NAPIL1_C132 (NAPIL1_C132) | % engagement NUDT16L1_C88 (NUDT16L1_C88) | % engagement TOMM70_C214 (TOMM70_C214) | % engagement NUDT16L1_88 (NUDT16L1_C88)
C=CC(=O)N1C[C@H](c2ccc(Br)cc2)[C@H]1C(=O)Nc1cccc2cccnc12 [MY-3B, (2S,3S)-1-acryloyl-3-(4-bromophenyl)-N-(quinolin-8-yl)azetidine-2-carboxamide] | 5% | 80% | 87.5% | 71.5% | 
C=CC(=O)N1C[C@H](c2ccc(Br)cc2)[C@@H]1C(=O)Nc1cccc2cccnc12 [MY-1B, (2R,3S)-1-acryloyl-3-(4-bromophenyl)-N-(quinolin-8-yl)azetidine-2-carboxamide] | 7% | 6% | 88.5% | 29% | 67.63%
CC#CC(=O)N1C[C@H](c2ccc(Br)cc2)[C@@H]1C(=O)Nc1cccc2cccnc12 [MY-45B, (2R,3S)-3-(4-bromophenyl)-1-(but-2-ynoyl)-N-(quinolin-8-yl)azetidine-2-carboxamide] |  |  |  |  | 9.38%

Next, values leading:

% engagement LRPPRC_C571 (LRPPRC_C571) | % engagement NAPIL1_C132 (NAPIL1_C132) | % engagement NUDT16L1_C88 (NUDT16L1_C88) | % engagement TOMM70_C214 (TOMM70_C214) | % engagement NUDT16L1_88 (NUDT16L1_C88) | Compound
20% | 25% | 14.5% | 30.5% |  | C=CC(=O)N1C[C@H](c2ccc(Br)cc2)[C@H]1C(=O)Nc1cccc2cccnc12 [MY-3A, (2S,3S)-1-acryloyl-3-(4-bromophenyl)-N-(quinolin-8-yl)azetidine-2-carboxamide]
73.5% | −21.5% | 33.25% | 7.5% |  | C=CC(=O)N1C[C@@H](c2ccc(Br)cc2)[C@H]1C(=O)Nc1cccc2cccnc12 [MY-1A, (2S,3R)-1-acryloyl-3-(4-bromophenyl)-N-(quinolin-8-yl)azetidine-2-carboxamide]

Reference: patent US20250034216A1, “STEREOSELECTIVE COVALENT LIGANDS FOR ONCOGENIC AND IMMUNOLOGICAL PROTEINS” (The Scripps Research Institute, priority 2021, published 2025)
